Assay results: ChEMBL document CHEMBL1201862, “PubChem BioAssay data set” (2004)
Several values for one entry are separate records, joined by “and”; a condition that tells them apart may be missing. Equal values may be shown once.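 A five-concentration, 48-hour dose response in 96-well plates underlies each endpoint, interpolated linearly between surrounding concentrations. Abbreviation: GI50, concentration required for 50% inhibition of growth.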 Activity calls are given as the source filed them. Rule as the data show it: active = GI50 up to about 1.1 µM and inactive = higher.

Experiments:
Assay in all cases: NCI anticancer screen, dose series, 48 h
T47D = tested on: T47D
786-0 = tested on: 786-0
OVCAR-8 = tested on: OVCAR-8
SK-OV-3 = tested on: SK-OV-3
Malme-3M = tested on: Malme-3M
NCI-H23 = tested on: NCI-H23
HOP-92 = tested on: HOP-92
RPMI-8226 = tested on: RPMI-8226
MCF7 = tested on: MCF7
IGROV-1 = tested on: IGROV-1
MDA-MB-231 = tested on: MDA-MB-231
OVCAR-5 = tested on: OVCAR-5
SK-MEL-2 = tested on: SK-MEL-2
LOX IMVI = tested on: LOX IMVI
DU-145 = tested on: DU-145
Hs-578T = tested on: Hs-578T
CCRF-CEM = tested on: CCRF-CEM
SF-539 = tested on: SF-539
HCC 2998 = tested on: HCC 2998
RXF 393 = tested on: RXF 393
EKVX = tested on: EKVX
SR = tested on: SR
SW-620 = tested on: SW-620
SF-295 = tested on: SF-295
SNB-19 = tested on: SNB-19
U-251 = tested on: U-251
MOLT-4 = tested on: MOLT-4
SK-MEL-5 = tested on: SK-MEL-5
SK-MEL-28 = tested on: SK-MEL-28
UACC-257 = tested on: UACC-257
OVCAR-3 = tested on: OVCAR-3
SN12C = tested on: SN12C
A498 = tested on: A498
TK-10 = tested on: TK-10
NCI-H460 = tested on: NCI-H460
NCI/ADR-RES = tested on: NCI/ADR-RES
UO-31 = tested on: UO-31
HL-60 = tested on: HL-60
M14 = tested on: M14
NCI-H522 = tested on: NCI-H522
SF-268 = tested on: SF-268
COLO 205 = tested on: COLO 205
OVCAR-4 = tested on: OVCAR-4
HCT-15 = tested on: HCT-15
KM12 = tested on: KM12
HOP-62 = tested on: HOP-62
K562 = tested on: K562
MDA-MB-435 = tested on: MDA-MB-435
CAKI-1 = tested on: CAKI-1
NCI-H226 = tested on: NCI-H226
HT-29 = tested on: HT-29
ACHN = tested on: ACHN
PC-3 = tested on: PC-3
UACC-62 = tested on: UACC-62
A549 = tested on: A549
HCT-116 = tested on: HCT-116

CC(=O)OC12c3ccccc3-c3ccccc3C1C(C(=O)O)C2C(=O)O (centres undefined)
GI50 (T47D): > 10 µM (inactive)
GI50 (786-0): > 10 µM (inactive)
GI50 (OVCAR-8): > 10 µM (inactive)
GI50 (SK-OV-3): > 10 µM (inactive)
GI50 (Malme-3M): 1.2 µM (inactive)
GI50 (NCI-H23): > 10 µM (inactive)
GI50 (HOP-92): > 10 µM (inactive)
GI50 (RPMI-8226): > 10 µM (inactive)
GI50 (MCF7): > 10 µM (inactive)
GI50 (IGROV-1): > 10 µM (inactive)
GI50 (MDA-MB-231): > 10 µM (inactive)
GI50 (OVCAR-5): > 10 µM (inactive)
GI50 (SK-MEL-2): > 10 µM (inactive)
GI50 (LOX IMVI): > 10 µM (inactive)
GI50 (DU-145): > 10 µM (inactive)
GI50 (Hs-578T): > 10 µM (inactive)
GI50 (CCRF-CEM): > 10 µM (inactive)
GI50 (SF-539): > 10 µM (inactive)
GI50 (HCC 2998): > 10 µM (inactive)
GI50 (RXF 393): > 10 µM (inactive)
GI50 (EKVX): > 10 µM (inactive)
GI50 (SR): > 10 µM (inactive)
GI50 (SW-620): > 10 µM (inactive)
GI50 (SF-295): > 10 µM (inactive)
GI50 (SNB-19): > 10 µM (inactive)
GI50 (U-251): > 10 µM (inactive)
GI50 (MOLT-4): > 10 µM (inactive)
GI50 (SK-MEL-5): > 10 µM (inactive)
GI50 (SK-MEL-28): > 10 µM (inactive)
GI50 (UACC-257): > 10 µM (inactive)
GI50 (OVCAR-3): > 10 µM (inactive)
GI50 (SN12C): > 10 µM (inactive)
GI50 (A498): > 10 µM (inactive)
GI50 (TK-10): > 10 µM (inactive)
GI50 (NCI-H460): > 10 µM (inactive)
GI50 (NCI/ADR-RES): > 10 µM (inactive)
GI50 (UO-31): > 10 µM (inactive)
GI50 (HL-60): > 10 µM (inactive)
GI50 (M14): > 10 µM (inactive)
GI50 (NCI-H522): > 10 µM (inactive)
GI50 (SF-268): > 10 µM (inactive)
GI50 (COLO 205): > 10 µM (inactive)
GI50 (OVCAR-4): > 10 µM (inactive)
GI50 (HCT-15): > 10 µM
GI50 (KM12): > 10 µM (inactive)
GI50 (HOP-62): > 10 µM (inactive)
GI50 (K562): > 10 µM (inactive)
GI50 (MDA-MB-435): 3.52 µM (inactive)
GI50 (CAKI-1): > 10 µM (inactive)
GI50 (NCI-H226): > 10 µM (inactive)
GI50 (HT-29): > 10 µM (inactive)
GI50 (ACHN): > 10 µM (inactive)
GI50 (PC-3): > 10 µM (inactive)

CC(=O)OCC1OC(n2c(=S)n(-c3ccc(C)cc3)c(=O)c3ccccc32)C(OC(C)=O)C(OC(C)=O)C1OC(C)=O (centres undefined)
GI50 (HOP-92): 31.6 µM (inactive) and 30.4 µM (inactive)
GI50 (RPMI-8226): 86.3 µM (inactive) and 49.1 µM (inactive)
GI50 (RXF 393): 83 µM (inactive) and 67 µM (inactive)
GI50 (SR): 23.7 µM (inactive)
GI50 (MOLT-4): 65.3 µM (inactive)
GI50 (TK-10): 29 µM (inactive)
GI50 (UO-31): 62.4 µM (inactive) and 58.1 µM (inactive)

O=c1c2cc(Br)ccc2ncn1COCc1ccccc1
GI50 (786-0): 70.3 µM (inactive)
GI50 (UACC-62): 80.5 µM (inactive)
GI50 (SK-OV-3): > 100 µM (inactive)
GI50 (HOP-92): > 100 µM (inactive)
GI50 (MCF7): 37.1 µM (inactive)
GI50 (IGROV-1): 56.2 µM (inactive)
GI50 (OVCAR-5): > 100 µM (inactive)
GI50 (SK-MEL-2): > 100 µM (inactive)
GI50 (LOX IMVI): 38.7 µM (inactive)
GI50 (DU-145): > 100 µM (inactive)
GI50 (CCRF-CEM): 71 µM (inactive)
GI50 (SF-539): > 100 µM (inactive)
GI50 (HCC 2998): > 100 µM (inactive)
GI50 (RXF 393): 51.5 µM (inactive)
GI50 (EKVX): 88.3 µM (inactive)
GI50 (A549): 52.1 µM (inactive)
GI50 (SR): 56.5 µM (inactive)
GI50 (SW-620): > 100 µM (inactive)
GI50 (SF-295): > 100 µM (inactive)
GI50 (SNB-19): 45.6 µM (inactive)
GI50 (U-251): > 100 µM (inactive)
GI50 (MOLT-4): 42.8 µM (inactive)
GI50 (SK-MEL-5): 31 µM (inactive)
GI50 (SK-MEL-28): > 100 µM (inactive)
GI50 (UACC-257): > 100 µM (inactive)
GI50 (OVCAR-3): > 100 µM (inactive)
GI50 (A498): > 100 µM (inactive)
GI50 (TK-10): 96.6 µM (inactive)
GI50 (HCT-116): 61.8 µM (inactive)
GI50 (UO-31): 24.1 µM (inactive)
GI50 (HL-60): > 10 µM (inactive)
GI50 (M14): 97.7 µM (inactive)
GI50 (COLO 205): 93.8 µM (inactive)
GI50 (OVCAR-4): > 100 µM (inactive)
GI50 (HCT-15): 64 µM
GI50 (KM12): 52.6 µM (inactive)
GI50 (K562): 54.6 µM (inactive)
GI50 (MDA-MB-435): > 100 µM (inactive)
GI50 (ACHN): 23.8 µM (inactive)
